Assay results published in publication PMC8954004, “Biochemical Basis of Xylooligosaccharide Utilisation by Gut Bacteria” (International Journal of Molecular Sciences, 2022).

B1: Lr-XylC (Limosilactobacillus reuteri subsp. suis) (protein)
chain: MNIYVDKNVPIDGNGQKTHPFKTIQAAANIAQPGDTVLVAPGIYRENVNPKNSGTSSKRITYKSSENLGAVITGAERVTSWEKIDDNVWKVNIPNGVFADYNPYITKVYGDWFDARIIAHTGEVYLNDKALYEVNSLDEVKKPVRNEKSWYPNDTLYTWFTEQDDRNNETIIYANFQGNNPNKENVEINVRENCFYPQAEGIGYITLSGFGVTKAATRWAPPTAYQEGMIGPHWSKGWIIEKCDISHSKCSGISLGKYLQPNNDNKWSKWKYKDGTQTERDAICQASYEGWDKEHVGSHIVRQNHIHDCGQTGIVGHLGGVFSLIEDNDIHDINVRQNLAGAEIGGIKMHAAIDVTYRHNHIHHCTRGLWLDWQAQGTRVTQNVFDHNSLPNDFKVTKDNLDDVLSGLGEDMWIEVSHGPTLIDNNLLLSDRSVRLAAQGVAFVHNLIAGSFTATGRGTDNNSVNLPSNRFTPYHEIHGTKVMGFMTIQHGDNKFYNNIFVQQKLRPEMQKLANMKKDEPDDWDDYNFKVGTKPFDNYPTFEEWKKQFDGYCGIYAPNSDHYYNHLPIWSAGNIYFNGAEPCNMEKDAIISDKKIQLKLEQRDEGLFLKTNLFNAVPAKTDGVISTDTIMMAFEPEEKYENPDGTPIIFNTDFFGTHREGIKVTAGPFAKGNEASSRLF
notes: recombinant E. coli Rosetta (DE3), pET28a, His-tag, any signal peptide excluded; ~75 kDa; catalytic Asp382 and Glu415

Legend:
Lr-XylC = target: T1, Lr-XylC (Limosilactobacillus reuteri, UniProt A0A0S4NRU4); assay: inhibition of pNP-Xyl hydrolysis, absorbance […] nm; format: biochemical; conditions: 2 mM pNP-Xyl, 50 mM sodium phosphate pH 5.7, 45 °C, 5 min; 200 mM xylose
T1 construct: recombinant E. coli Rosetta (DE3), pET28a, His-tag, any signal peptide excluded; ~75 kDa; catalytic Asp382 and Glu415
T1 sequence (A0A0S4NRU4 1-679): B1 chain

Bp-XylX-2 = target: T2, Bp-XylX-2 (Blautia producta, UniProt A0ABX6JGM7); assay: inhibition of pNP-Xyl hydrolysis, absorbance […] nm; format: biochemical; conditions: 2 mM pNP-Xyl, 50 mM sodium phosphate pH 5.7, 45 °C, 5 min; 200 mM xylose
T2 construct: gene GXM18_22300; recombinant E. coli Rosetta (DE3), pET28a, His-tag, any signal peptide excluded; ~75 kDa; catalytic Asp386 and Glu409; strain proteome UP000464715

Bp-XylX-1 = target: T3, Bp-XylX-1 (Blautia producta, UniProt A0ABX6JHR7); assay: inhibition of pNP-Xyl hydrolysis, absorbance […] nm; format: biochemical; conditions: 2 mM pNP-Xyl, 50 mM sodium phosphate pH 5.7, 45 °C, 5 min; 200 mM xylose
T3 construct: gene GXM18_27615; recombinant E. coli Rosetta (DE3), pET28a, His-tag, any signal peptide excluded; ~75 kDa; catalytic Asp371 and Glu408; strain proteome UP000464715

purified protein = substrate: O=[N+]([O-])c1ccc(O[C@@H]2OC[C@@H](O)[C@H](O)[C@H]2O)cc1; assay: purified protein; format: biochemical, Limosilactobacillus reuteri; conditions: sodium phosphate pH 5.7 (50 mM in Table 1, 10 mM in methods), 45 °C, 10 min, 1.3 µM enzyme

T2 sequence (A0ABX6JGM7 entry or part of it): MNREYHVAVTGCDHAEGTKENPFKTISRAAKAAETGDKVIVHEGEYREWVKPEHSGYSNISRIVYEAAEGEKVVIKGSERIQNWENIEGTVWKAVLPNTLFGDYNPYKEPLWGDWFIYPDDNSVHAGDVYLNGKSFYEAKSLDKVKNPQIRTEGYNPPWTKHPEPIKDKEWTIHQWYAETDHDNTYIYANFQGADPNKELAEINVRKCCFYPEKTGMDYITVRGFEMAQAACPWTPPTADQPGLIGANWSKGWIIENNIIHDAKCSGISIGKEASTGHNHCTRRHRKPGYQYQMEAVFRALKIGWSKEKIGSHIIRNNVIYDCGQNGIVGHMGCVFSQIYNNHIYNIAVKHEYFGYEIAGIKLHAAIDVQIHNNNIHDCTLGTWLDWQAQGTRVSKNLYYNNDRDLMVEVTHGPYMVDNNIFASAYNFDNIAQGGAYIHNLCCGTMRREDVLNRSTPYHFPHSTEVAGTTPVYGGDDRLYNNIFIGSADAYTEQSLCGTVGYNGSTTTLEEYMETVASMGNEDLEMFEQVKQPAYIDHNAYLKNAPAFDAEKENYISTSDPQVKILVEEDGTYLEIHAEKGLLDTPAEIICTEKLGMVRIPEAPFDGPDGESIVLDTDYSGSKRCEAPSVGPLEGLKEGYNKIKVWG
T3 sequence (A0ABX6JHR7 entry or part of it): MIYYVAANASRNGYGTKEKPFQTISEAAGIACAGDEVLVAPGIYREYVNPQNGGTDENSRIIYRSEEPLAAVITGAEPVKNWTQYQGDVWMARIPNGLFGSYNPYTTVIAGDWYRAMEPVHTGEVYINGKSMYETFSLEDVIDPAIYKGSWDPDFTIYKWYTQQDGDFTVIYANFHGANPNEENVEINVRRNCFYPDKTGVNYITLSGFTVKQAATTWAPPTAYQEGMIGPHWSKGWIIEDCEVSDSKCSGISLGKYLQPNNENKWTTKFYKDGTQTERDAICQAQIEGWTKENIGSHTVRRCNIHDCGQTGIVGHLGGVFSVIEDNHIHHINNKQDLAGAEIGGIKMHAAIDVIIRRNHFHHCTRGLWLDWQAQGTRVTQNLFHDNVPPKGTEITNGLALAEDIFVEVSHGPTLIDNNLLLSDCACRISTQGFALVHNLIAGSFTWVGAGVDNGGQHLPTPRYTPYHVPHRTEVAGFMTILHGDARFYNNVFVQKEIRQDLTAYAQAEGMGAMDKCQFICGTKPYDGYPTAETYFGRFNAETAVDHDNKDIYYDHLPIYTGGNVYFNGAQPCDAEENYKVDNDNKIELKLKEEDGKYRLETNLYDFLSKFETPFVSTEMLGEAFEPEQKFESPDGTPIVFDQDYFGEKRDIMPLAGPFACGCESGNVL

Row | Molecule | % reduction in activity at 200 mM (Lr-XylC) | % reduction in activity at 200 mM (Bp-XylX-2) | % reduction in activity at 200 mM (Bp-XylX-1) | Km (purified protein) [µM] | kcat (purified protein) [s⁻¹] | kcat/Km (purified protein) [M⁻¹ s⁻¹]
1 | OC1OC[C@@H](O)[C@H](O)[C@H]1O (stereo partly drawn) [xylose] | ~ 12% | ~ 26% | ~ 42% |  |  | 
2 | B1 |  |  |  | 230 ± 20 | 11.4 ± 0.2 | 49000
